Legend:
Assay type in all cases: in vivo
Euphorbia = assay: Compound (A) with primisulfuron, weed plots; settings: 45 DAA, Trial 3.20
From the text: In these tests, […] and Compound (A) at rates equivalent to the sum of these. The compositions were formulated as an emulsifiable concentrate (EC).
The results in the tables under each application are the percentage of the plants that were killed.

AMBROSIA TRIFIDA = assay: Compound (A) with S-metolachlor, weed plots
Procedure: (§1) In these tests, various weeds were treated with S-metolachlor (SMOC) alone at an application rate equivalent to 1420 g per hectare, Compound (A) alone at rates equivalent to 20 g per hectare and […] and with mixtures of S-metolachlor and the Compound (A) at rates equivalent to the sum of these. The compositions were formulated as an emulsifyable concentrate (EC).
(§2) The results in the table under each application are the percentage of the plants that were killed.

E[…]-GALLI = assay: Compound (A) with S-metolachlor, weed plots; settings: 28 DAA, Trial 4.1
Procedure: as §1, §2

IPOMOEA SP. = assay: Compound (A) with S-metolachlor, weed plots
Procedure: as §1, §2

POLYGONUM PENSYLVANICUM = assay: Compound (A) with S-metolachlor, weed plots; settings: 56 DAA, Trial 4.14
Procedure: as §1, §2

SESBANIA EXALTATA = assay: Compound (A) with S-metolachlor, weed plots; settings: 56 DAA, Trial 4.2
Procedure: as §1, §2

XANTHIUM STRUMARIUM = assay: Compound (A) with S-metolachlor, weed plots
Procedure: as §1, §2

CCOC(=O)COc1ncccc1Oc1cc(-n2c(=O)cc(C(F)(F)F)n(C)c2=O)c(F)cc1Cl [Compound (A)]
percentage of the plants that were killed (Euphorbia; 1.25 g/ha): 50% | percentage of the plants that were killed (Euphorbia; 2.5 g/ha): 70% | percentage of the plants that were killed (Euphorbia; 5 g/ha): 70% | percentage of the plants that were killed (AMBROSIA TRIFIDA; 20 g/ha, 8 DAA, Trial 4.16): 75% | percentage of the plants that were killed (AMBROSIA TRIFIDA; 20 g/ha, 42 DAA, Trial 4.15): 23% | percentage of the plants that were killed (AMBROSIA TRIFIDA; 40 g/ha, 8 DAA, Trial 4.16): 95% | percentage of the plants that were killed (AMBROSIA TRIFIDA; 40 g/ha, 42 DAA, Trial 4.15): 38% | percentage of the plants that were killed (E[…]-GALLI; 20 g/ha): 53% | percentage of the plants that were killed (E[…]-GALLI; 40 g/ha): 55% | percentage of the plants that were killed (IPOMOEA SP.; 20 g/ha, 25 DAA, Trial 4.9): 35% | percentage of the plants that were killed (IPOMOEA SP.; 20 g/ha, 49 DAA, Trial 4.10): 20% | percentage of the plants that were killed (IPOMOEA SP.; 40 g/ha, 25 DAA, Trial 4.9): 65% | percentage of the plants that were killed (IPOMOEA SP.; 40 g/ha, 49 DAA, Trial 4.10): 60% | percentage of the plants that were killed (POLYGONUM PENSYLVANICUM; 20 g/ha): 0% | percentage of the plants that were killed (POLYGONUM PENSYLVANICUM; 40 g/ha): 13% | percentage of the plants that were killed (SESBANIA EXALTATA; 20 g/ha): 50% | percentage of the plants that were killed (SESBANIA EXALTATA; 40 g/ha): 25% | percentage of the plants that were killed (XANTHIUM STRUMARIUM; 20 g/ha, 26 DAA, Trial 4.17): 25% | percentage of the plants that were killed (XANTHIUM STRUMARIUM; 20 g/ha, 42 DAA, Trial 4.18): 23% | percentage of the plants that were killed (XANTHIUM STRUMARIUM; 40 g/ha, 26 DAA, Trial 4.17): 73% | percentage of the plants that were killed (XANTHIUM STRUMARIUM; 40 g/ha, 42 DAA, Trial 4.18): 68%
